From PubChem BioAssay AID248 (DTP/NCI, 2004)
Where “and” joins values, the source holds several entries; their conditions need not be identical. Equal values may be shown once. Toxic doses and inconclusive results are not listed. Rule as the data show it: active = T/C of 150% or more; inactive = T/C below 125%.

Tested on: L1210 leukemia ip in BDF1 mice, survival T/C
Assay: NCI In Vivo Anticancer Drug Screen. Data for tumor model L1210 Leukemia (intraperitoneal) in B6D2F1 (BDF1) mice
Conditions: endpoint: mean survival time, higher = longer survival
Method in brief: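 Transplantable tumor model; survival measured in treated vs vehicle control mice. Value = treated/control.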

[1] = dose: 100.0 mg/kg/injection, schedule: Q01DX001 (ip), vehicle: carboxymethylcellulose (CMC)
[2] = dose: 200.0 mg/kg/injection, schedule: Q01DX001 (ip), vehicle: carboxymethylcellulose (CMC)
[3] = dose: 400.0 mg/kg/injection, schedule: Q01DX001 (ip), vehicle: carboxymethylcellulose (CMC)

Measured: T/C

CN(C)N=C1CCC(=NN(C)C)CC1
inactive: dose: 12.5 mg/kg/injection, schedule: Q04DX003 (ip), vehicle: saline 100 % of control | dose: 25.0 mg/kg/injection, schedule: Q04DX003 (ip), vehicle: saline 100 % of control | dose: 50.0 mg/kg/injection, schedule: Q04DX003 (ip), vehicle: saline 94 % of control | dose: 100.0 mg/kg/injection, schedule: Q04DX003 (ip), vehicle: saline 100 % of control | dose: 200.0 mg/kg/injection, schedule: Q04DX003 (ip), vehicle: saline 99 % of control

CC(C)CCOC(=O)N(C)c1ccccc1
inactive: dose: 75.0 mg/kg/injection, schedule: Q04DX002 (ip), vehicle: Klucel (hydroxypropylcellulose) (HPC) 101 % of control | dose: 150.0 mg/kg/injection, schedule: Q04DX002 (ip), vehicle: Klucel (hydroxypropylcellulose) (HPC) 105 % of control | dose: 300.0 mg/kg/injection, schedule: Q04DX002 (ip), vehicle: Klucel (hydroxypropylcellulose) (HPC) 105 % of control

COc1cc(/C=N/NC(=O)c2cccc([N+](=O)[O-])c2)ccc1O
inactive: [1] 98 % of control | dose: 100.0 mg/kg/injection, schedule: Q01DX009 (ip), vehicle: carboxymethylcellulose (CMC) 97 % of control and 107 % of control | dose: 100.0 mg/kg/injection, schedule: Q04DX002 (ip), vehicle: carboxymethylcellulose (CMC) 101 % of control and 108 % of control | [2] 96 % of control | dose: 200.0 mg/kg/injection, schedule: Q01DX009 (ip), vehicle: carboxymethylcellulose (CMC) 93 % of control and 103 % of control | dose: 200.0 mg/kg/injection, schedule: Q04DX002 (ip), vehicle: carboxymethylcellulose (CMC) 101 % of control and 104 % of control | [3] 91 % of control | dose: 400.0 mg/kg/injection, schedule: Q01DX009 (ip), vehicle: carboxymethylcellulose (CMC) 97 % of control and 100 % of control | dose: 400.0 mg/kg/injection, schedule: Q04DX002 (ip), vehicle: carboxymethylcellulose (CMC) 104 % of control and 105 % of control

CCOC(CNC(=S)Nc1ccccc1)OCC
inactive: [1] 89 % of control | [2] 95 % of control | [3] 95 % of control

CC(=O)OC(=O)C1C2CC3C(C2)C31 (stereo not drawn)
inactive: dose: 6.25 mg/kg/injection, schedule: Q01DX009 (ip), vehicle: other 101 % of control | dose: 12.5 mg/kg/injection, schedule: Q01DX009 (ip), vehicle: other 97 % of control | dose: 25.0 mg/kg/injection, schedule: Q01DX009 (ip), vehicle: other 93 % of control
